pEC50: −log10 of the molar value. Where a name gives a salt, the structure may show the parent alone.
System: ISG reporter activity in THP1-Dual cell
Experiment: ISG reporter assay
Type: cell-based
Details: Homo sapiens, compounds incubated with cells for 24 hours, QUANTI-Blue, absorbance at 655 nm
Procedure: [Worded in the source for another cell line; this cell line is reported under the same test.] THP1-Blue cells (cat. no. thp-isg) were purchased from InvivoGen (Sandiago, USA). Penicillin—streptomycin (cat. no. L0022-100), Fetal Bovine Serum (FBS) (cat. no. S1480-500) and Roswell Park Memorial Institute (RPMI) 1640 media (cat. L0498-500) were purchased from biowest (Nuaille, France). Zeocin (cat. no. ant-zn-OS) and Normocin (cat. no. ant-nr-1) were purchased from InvivoGen (Sandiago, USA). QUANTI-Blue™ (cat. no. rep-qbs) was purchased from InvivoGen. THP1-Blue cells were cultured in RPMI 1640 medium with 10% heat-inactivated FBS, 100 μg/ml Normocin, 100 μg/ml Zeocin and 100 U/ml-100 μg/ml penicillin-streptomycin. The cells were incubated at 37° C. in a humidified atmosphere of 5% CO2.
THP1-Blue cells were seeded at 5×10^4 cells/well (90 μl/well). 10 μl of compounds were added to the cells and incubated for 24 hours. 20 μl of cell culture supernatant was dispensed new 96-well plate (cat. no. 30096) with 180 μl of QUANTI-Blue™ solution and incubated for 15 minutes at 37° C. The absorbance was measured by Varioskan Lux (Thermofisher Scientific, USA) at 655 nm.

Structure (SMILES) | pEC50
CCn1nc(C)cc1C(=O)Nc1nc2cc(C(=O)NOC)cc(OC)c2n1C/C=C/Cn1c(NC(=O)c2cc(C)nn2CC)nc2cc(C(N)=O)cc(OCC#CC(C)(C)O)c21 [Example 33, (E)-1-(4-(5-carbamoyl-2-(1-ethyl-3-methyl-1H-pyrazole-5-carboxamido)-7-((4-hydroxy-4-methylpent-2-yn-1-yl)oxy)-1H-benzo[d]imidazol-1-yl)but-2-en-1-yl)-2-(1-ethyl-3-methyl-1H-pyrazole-5-carboxamido)-N,7-dimethoxy-1H-benzo[d]imidazole-5-carboxamide] | < 6.30
CCn1nc(C)cc1C(=O)Nc1nc2cc(C(=O)NOC)cc(OC)c2n1C/C=C/Cn1c(NC(=O)c2cc(C)nn2CC)nc2cc(C(N)=O)cc(OCC#CCN3CCN(C(=O)OC(C)(C)C)CC3)c21 [Example 36, tert-butyl (E)-4-(4-((5-carbamoyl-2-(1-ethyl-3-methyl-1H-pyrazole-5-carboxamido)-1-(4-(2-(1-ethyl-3-methyl-1H-pyrazole-5-carboxamido)-7-methoxy-5-(methoxycarbamoyl)-1H-benzo[d]imidazol-1-yl)but-2-en-1-yl)-1H-benzo[d]imidazol-7-yl)oxy)but-2-yn-1-yl)piperazine-1-carboxylate] | 6.30 to 7.30
CCn1nc(C)cc1C(=O)Nc1nc2cc(C(=O)NOC)cc(OC)c2n1C/C=C/Cn1c(NC(=O)c2cc(C)nn2CC)nc2cc(C(N)=O)cc(OCC#CCN3CCN(C(=O)C(C)C)CC3)c21 [Example 39, (E)-1-(4-(5-carbamoyl-2-(1-ethyl-3-methyl-1H-pyrazole-5-carboxamido)-7-((4-(4-isobutyrylpiperazin-1-yl)but-2-yn-1-yl)oxy)-1H-benzo[d]imidazol-1-yl)but-2-en-1-yl)-2-(1-ethyl-3-methyl-1H-pyrazole-5-carboxamido)-N,7-dimethoxy-1H-benzo[d]imidazole-5-carboxamide] | < 6.30
CCn1nc(C)cc1C(=O)Nc1nc2cc(C(=O)NOC)cc(OC)c2n1C/C=C/Cn1c(NC(=O)c2cc(C)nn2CC)nc2cc(C(N)=O)cc(OCC#CCN3CCOCC3)c21 [Example 40, (E)-1-(4-(5-carbamoyl-2-(1-ethyl-3-methyl-1H-pyrazole-5-carboxamido)-7-((4-morpholinobut-2-yn-1-yl)oxy)-1H-benzo[d]imidazol-1-yl)but-2-en-1-yl)-2-(1-ethyl-3-methyl-1H-pyrazole-5-carboxamido)-N,7-dimethoxy-1H-benzo[d]imidazole-5-carboxamide] | 6.30 to 7.30
CCn1nc(C)cc1C(=O)Nc1nc2cc(C(N)=O)cc(OC)c2n1C/C=C/Cn1c(NC(=O)c2cc(C)nn2CC)nc2cc(C(N)=O)cc(OCC#CC(C)(C)N3CCN(C(=O)OC(C)(C)C)CC3)c21 [Example 41, tert-butyl (E)-4-(5-((5-carbamoyl-1-(4-(5-carbamoyl-2-(1-ethyl-3-methyl-1H-pyrazole-5-carboxamido)-7-methoxy-1H-benzo[d]imidazol-1-yl)but-2-en-1-yl)-2-(1-ethyl-3-methyl-1H-pyrazole-5-carboxamido)-1H-benzo[d]imidazol-7-yl)oxy)-2-methylpent-3-yn-2-yl)piperazine-1-carboxylate] | > 7.30
CCn1nc(C)cc1C(=O)Nc1nc2cc(C(N)=O)cc(OC)c2n1C/C=C/Cn1c(NC(=O)c2cc(C)nn2CC)nc2cc(C(N)=O)cc(OCC#CCC3CCN(C(=O)OC(C)(C)C)CC3)c21 [Example 42, tert-butyl (E)-4-(4-((5-carbamoyl-1-(4-(5-carbamoyl-2-(1-ethyl-3-methyl-1H-pyrazole-5-carboxamido)-7-methoxy-1H-benzo[d]imidazol-1-yl)but-2-en-1-yl)-2-(1-ethyl-3-methyl-1H-pyrazole-5-carboxamido)-1H-benzo[d]imidazol-7-yl)oxy)but-2-yn-1-yl)piperidine-1-carboxylate] | > 7.30
CCn1nc(C)cc1C(=O)Nc1nc2cc(C(N)=O)cc(OC)c2n1C/C=C/Cn1c(NC(=O)c2cc(C)nn2CC)nc2cc(C(N)=O)cc(OCC#CCC3CCNCC3)c21 [Example 43, (E)-1-(4-(5-carbamoyl-2-(1-ethyl-3-methyl-1H-pyrazole-5-carboxamido)-7-((4-(piperidin-4-yl)but-2-yn-1-yl)oxy)-1H-benzo[d]imidazol-1-yl)but-2-en-1-yl)-2-(1-ethyl-3-methyl-1H-pyrazole-5-carboxamido)-7-methoxy-1H-benzo[d]imidazole-5-carboxamide hydrochloride] | 6.30 to 7.30
CCn1nc(C)cc1C(=O)Nc1nc2cc(C(N)=O)cc(OC)c2n1C/C=C/Cn1c(NC(=O)c2cc(C)nn2CC)nc2cc(C(N)=O)cc(OCC#CCC3CCN(C(=O)OC4CC4)CC3)c21 [Example 44, cyclopropyl (E)-4-(4-((5-carbamoyl-1-(4-(5-carbamoyl-2-(1-ethyl-3-methyl-1H-pyrazole-5-carboxamido)-7-methoxy-1H-benzo[d]imidazol-1-yl)but-2-en-1-yl)-2-(1-ethyl-3-methyl-1H-pyrazole-5-carboxamido)-1H-benzo[d]imidazol-7-yl)oxy)but-2-yn-1-yl)piperidine-1-carboxylate] | > 7.30
CCn1nc(C)cc1C(=O)Nc1nc2cc(C(N)=O)cc(OC)c2n1C/C=C/Cn1c(NC(=O)c2cc(C)nn2CC)nc2cc(C(N)=O)cc(OCC#CCC3CCN(C(=O)OCCO)CC3)c21 [Example 45, 2-hydroxyethyl (E)-4-(4-((5-carbamoyl-1-(4-(5-carbamoyl-2-(1-ethyl-3-methyl-1H-pyrazole-5-carboxamido)-7-methoxy-1H-benzo[d]imidazol-1-yl)but-2-en-1-yl)-2-(1-ethyl-3-methyl-1H-pyrazole-5-carboxamido)-1H-benzo[d]imidazol-7-yl)oxy)but-2-yn-1-yl)piperidine-1-carboxylate] | > 7.30

Further lines, results first:

pEC50 | Structure (SMILES)
> 7.30 | CCn1nc(C)cc1C(=O)Nc1nc2cc(C(N)=O)cc(OC)c2n1C/C=C/Cn1c(NC(=O)c2cc(C)nn2CC)nc2cc(C(N)=O)cc(OCC#CC3CCN(S(=O)(=O)N4CCNCC4)CC3)c21 [Example 29, (E)-1-(4-(5-carbamoyl-2-(1-ethyl-3-methyl-1H-pyrazole-5-carboxamido)-7-((3-(1-(piperazin-1-ylsulfonyl)piperidin-4-yl)prop-2-yn-1-yl)oxy)-1H-benzo[d]imidazol-1-yl)but-2-en-1-yl)-2-(1-ethyl-3-methyl-1H-pyrazole-5-carboxamido)-7-methoxy-1H-benzo[d]imidazole-5-carboxamide hydrochloride]
> 7.30 | CCn1nc(C)cc1C(=O)Nc1nc2cc(C(N)=O)cc(OC)c2n1C/C=C/Cn1c(NC(=O)c2cc(C)nn2CC)nc2cc(C(N)=O)cc(OCC#CC3CN(C(=O)OC(C)(C)C)C3)c21 [Example 30, tert-butyl (E)-3-(3-((5-carbamoyl-1-(4-(5-carbamoyl-2-(1-ethyl-3-methyl-1H-pyrazole-5-carboxamido)-7-methoxy-1H-benzo[d]imidazol-1-yl)but-2-en-1-yl)-2-(1-ethyl-3-methyl-1H-pyrazole-5-carboxamido)-1H-benzo[d]imidazol-7-yl)oxy)prop-1-yn-1-yl)azetidine-1-carboxylate]
> 7.30 | CCn1nc(C)cc1C(=O)Nc1nc2cc(C(N)=O)cc(OC)c2n1C/C=C/Cn1c(NC(=O)c2cc(C)nn2CC)nc2cc(C(N)=O)cc(OCC#CC3CCN(C(=O)OC(C)(C)C)C3)c21 (stereo not drawn) [Example 31, tert-butyl (E)-3-(3-((5-carbamoyl-1-(4-(5-carbamoyl-2-(1-ethyl-3-methyl-1H-pyrazole-5-carboxamido)-7-methoxy-1H-benzo[d]imidazol-1-yl)but-2-en-1-yl)-2-(1-ethyl-3-methyl-1H-pyrazole-5-carboxamido)-1H-benzo[d]imidazol-7-yl)oxy)prop-1-yn-1-yl)pyrrolidine-1-carboxylate]
> 7.30 | CCn1nc(C)cc1C(=O)Nc1nc2cc(C(N)=O)cc(OC)c2n1C/C=C/Cn1c(NC(=O)c2cc(C)nn2CC)nc2cc(C(N)=O)cc(OCC#CC3CCCN(C(=O)OC(C)(C)C)C3)c21 (stereo not drawn) [Example 32, tert-butyl (E)-3-(3-((5-carbamoyl-1-(4-(5-carbamoyl-2-(1-ethyl-3-methyl-1H-pyrazole-5-carboxamido)-7-methoxy-1H-benzo[d]imidazol-1-yl)but-2-en-1-yl)-2-(1-ethyl-3-methyl-1H-pyrazole-5-carboxamido)-1H-benzo[d]imidazol-7-yl)oxy)prop-1-yn-1-yl)piperidine-1-carboxylate]
> 7.30 | CCn1nc(C)cc1C(=O)Nc1nc2cc(C(N)=O)cc(OC)c2n1C/C=C/Cn1c(NC(=O)c2cc(C)nn2CC)nc2cc(C(N)=O)cc(OCC#CC3CCN(C(=O)OCCN(C)C)CC3)c21 [Example 34, 2-(dimethylamino)ethyl (E)-4-(3-((5-carbamoyl-1-(4-(5-carbamoyl-2-(1-ethyl-3-methyl-1H-pyrazole-5-carboxamido)-7-methoxy-1H-benzo[d]imidazol-1-yl)but-2-en-1-yl)-2-(1-ethyl-3-methyl-1H-pyrazole-5-carboxamido)-1H-benzo[d]imidazol-7-yl)oxy)prop-1-yn-1-yl)piperidine-1-carboxylate]
> 7.30 | CCn1nc(C)cc1C(=O)Nc1nc2cc(C(N)=O)cc(OC)c2n1C/C=C/Cn1c(NC(=O)c2cc(C)nn2CC)nc2cc(C(N)=O)cc(OCC#CCN3CCN(C(=O)OC(C)(C)C)CC3)c21 [Example 37]

Reference: US20230219931A1, “FUSED HETEROARYL HYDROXAMATES AS STING AGONISTS” (BiSiChem Co., Ltd., priority 2022, published 2023)
